Legend:
Format in all cases: cell-based
[1] = test system: K562; experiment: MTT assay, K562 cells; settings: Homo sapiens, 24 h, MTT, read-out: Viability rate
[2] = test system: K562, Nalm-6, Molt-4, Reh, Jurkat, Hek293T cell lines; experiment: MTT assay, overall judgement over all cell lines; settings: overall judgement in words; for 6 and 10: on all cell lines, except Reh
Method: (§1) To evaluate in-vitro anti-cancer activity of the newly synthesized compounds, they were tested by using the MTT assay in the BCR-ABL positive leukemic cell line (K562), BCR-ABL negative leukemic cell lines (Nalm-6, Molt-4, Reh and Jurkat), and non-leukemic human embryonic kidney tissue (Hek293T) cell line. […] The viability rate of each concentration was calculated by the formula stated in material and methods, the viability rate results for each cell were presented in Table S2 and Figure S44.

[3] = test system: Jurkat; experiment: MTT assay, Jurkat cells; settings: Homo sapiens, 24 h, read-out: Viability rate
Method: (§2) K562, Jurkat, Molt-4, and Nalm-6 cell lines were cultured in RPMI-1640 medium (ECM2001, Euroclone), Reh cell line was cultured in DMEM medium (LM-D1111-Biosera) Hek293T cell line was cultured in IMDM medium (AL070A - HiMedia) supplemented with 10% heat-inactivated fetal bovine serum (F7524-Merck & Co., USA,) penicillin and streptomycin (P4333-Sigma Aldrich). K562, Jurkat and Molt-4 cell lines were seeded as 4x10^5/ml, Reh and Nalm-6 cell lines were seeded 5x10^5/ml, Hek293T cell line was seed as 2x10^5/ml. All cells were incubated at 5% CO2 and 37 °C. All cell lines were kindly provided by Dr. M. Sayitoglu and Dr. Ö. Hatirnaz-Ng from Acibadem University.
(§3) MTT assay is a 3-day test. On the first day, cell count was performed in Bio Rad TC-20 device with the help of trypan blue, each cell line was prepared by diluting to the specified concentrations and seeded in a 96-well plate as 100μL to each well and incubated for 1 day.
(§4) Each compound was solved in DMSO, their stock solutions (33.3, 10, 5, 1 mM, and 300 μM) were prepared by diluting with the same solvent and they were stored under −20°C when they were not used.
(§5) On the second day, stock solutions were subsequently diluted to various concentrations (0.3–200 μM) with related medium prior to experiments. Specified concentrations of the compounds were seeded in a 96-well plate as 100μL to each well and incubated for 24 h.
(§6) After incubation (on the third day), to precipitate leukemia cells, the cell plate was centrifuged at 1500 rpm for 5 min. Then, 100 μL of supernatant was removed from each well carefully and 10 μl of MTT solution (5 mg/mL) was added to each well and incubated at 37 °C for 4 h. The 50 μl of supernatant was discarded from each well and 100 μl of DMSO was added to dissolve the formazan. Plates were shaken for 45 min to dissolve the dye. Then the optical density of each well was measured by using Thermo VarioSkan Flush Multimode Reader Quantum ST5-1100 at 570 nm wavelength.
(§7) Subsequently, viability rate of the cells at each concentration, as percentage, was determined by following formula (1):
(§8) Viability rate (%)=100-[(OD(control)-OD(sample))/OD(control)×100].OD=Optical Density
(§9) The IC50 values were calculated by using GraphPad Prism. All the data presented as the mean of 6 replicates. Results were analyzed and illustrated with Graph Pad Prism (version 5; GraphPad Software, San Diego, CA, USA). Statistical analysis was performed using dose-response inhibition, log(inhibitor) vs response-variable slope, least squares (ordinary) fit.
as §1

[4] = test system: Reh; experiment: MTT assay, Reh cells; settings: Homo sapiens, 24 h, read-out: Viability rate
Method: as §2, §3, §4, §5, §6, §7, §8, §9, §1

[5] = test system: Nalm-6; experiment: MTT assay, Nalm-6 cells; settings: Homo sapiens, 24 h, MTT, read-out: Viability rate
[6] = MTT assay, Hek293T non-leukemic control cells; settings: human, Hek293T cells (non-leukemic control cell line), read-out: Viability rate
Method: as §2, §3, §4, §5, §6, §7, §8, §9, §1

[7] = test system: Molt-4; experiment: MTT assay, Molt-4 cells; settings: Homo sapiens, MOLT-4, 24 h, read-out: Viability rate
Method: as §2, §3, §4, §5, §6, §7, §8, §9, §1

What does the source list for `Cc1ccnc(Nc2cc(NC(=O)c3ccc(CN4CCN(c5ncccn5)CC4)cc3)ccc2C)n1` [Compound 5, N-(4-Methyl-3-((4-methylpyrimidin-2-yl)amino)phenyl)-4-((4-(pyrimidin-2-yl)piperazin-1-yl)methyl)benzamide]?
viability at 1 µM ([1]; K562, 1 μM): 103.1 ± 0.07%; viability at 3 µM ([1]; K562, 3 μM): 98.7 ± 0.08%; viability at 5 µM ([1]; K562, 5 μM): 99.7 ± 0.06%; viability at 10 µM ([1]; K562, 10 μM): 97 ± 0.05%; viability at 15 µM ([1]; K562, 15 μM): 99.5 ± 0.12%; viability at 20 µM ([1]; K562, 20 μM): 106.5 ± 0.04%; viability at 30 µM ([1]; K562, 30 μM): 102.7 ± 0.05%; viability at 50 µM ([1]; K562, 50 μM): 101.6 ± 0.12%; viability at 70 µM ([1]; K562, 70 μM): 100.1 ± 0.08%; viability at 100 µM ([1]; K562, 100 μM): 104.6 ± 0.1%; viability at 150 µM ([1]; K562, 150 μM): 104.3 ± 0.1%; viability at 200 µM ([1]; K562, 200 μM): 102.1 ± 0.14%; anticancer activity according to MTT assay results [2]: very poor activity; viability at 3 µM ([3]; 3 μM): 90.1 ± 0.11%; viability at 5 µM ([3]; 5 μM): 89.7 ± 0.09%; viability at 10 µM ([3]; 10 μM): 89.6 ± 0.15%; viability at 15 µM ([3]; 15 μM): 88.8 ± 0.09%; viability at 20 µM ([3]; 20 μM): 88.8 ± 0.08%; viability at 30 µM ([3]; 30 μM): 88.1 ± 0.1%; viability at 50 µM ([3]; 50 μM): 83.4 ± 0.12%; viability at 70 µM ([3]; 70 μM): 82.5 ± 0.07%; viability at 100 µM ([3]; 100 μM): 80.8 ± 0.13%; viability at 150 µM ([3]; 150 μM): 78.7 ± 0.12%; viability at 200 µM ([3]; 200 μM): 66.5 ± 0.05%; viability at 1 µM ([4]; 1 μM): 96.6 ± 0.01%; viability at 3 µM ([4]; 3 μM): 95.8 ± 0.05%; viability at 5 µM ([4]; 5 μM): 95.7 ± 0.03%; viability at 10 µM ([4]; 10 μM): 95.1 ± 0.04%; viability at 15 µM ([4]; 15 μM): 94.9 ± 0.04%; viability at 20 µM ([4]; 20 μM): 90.2 ± 0.03%; viability at 30 µM ([4]; 30 μM): 87.9 ± 0.04%; viability at 50 µM ([4]; 50 μM): 85.5 ± 0.05%; viability at 70 µM ([4]; 70 μM): 81.4 ± 0.01%; viability at 100 µM ([4]; 100 μM): 79.1 ± 0.01%; viability at 150 µM ([4]; 150 μM): 79.1 ± 0.02%; viability at 200 µM ([4]; 200 μM): 74%; viability at 1 µM ([5]; Nalm-6, 1 μM): 95.8 ± 0.01%; viability at 3 µM ([5]; Nalm-6, 3 μM): 95 ± 0.02%; viability at 5 µM ([5]; Nalm-6, 5 μM): 92.4 ± 0.03%; viability at 10 µM ([5]; Nalm-6, 10 μM): 90.1 ± 0.02%; viability at 15 µM ([5]; Nalm-6, 15 μM): 84.1 ± 0.01%; viability at 20 µM ([5]; Nalm-6, 20 μM): 80.1 ± 0.02%; viability at 30 µM ([5]; Nalm-6, 30 μM): 78.6 ± 0.01%; viability at 50 µM ([5]; Nalm-6, 50 μM): 74.1 ± 0.01%; viability at 70 µM ([5]; Nalm-6, 70 μM): 71.9 ± 0.01%; viability at 100 µM ([5]; Nalm-6, 100 μM): 70.3 ± 0.01%; viability at 150 µM ([5]; Nalm-6, 150 μM): 70.2 ± 0.01%; viability at 200 µM ([5]; Nalm-6, 200 μM): 70.5 ± 0.01%; viability at 24 h, 3 µM ([6]; 3 μM): 66.5 ± 0.11%; viability at 24 h, 5 µM ([6]; 5 μM): 61 ± 0.13%; viability at 24 h, 10 µM ([6]; 10 μM): 59.4 ± 0.08%; viability at 24 h, 15 µM ([6]; 15 μM): 56.6 ± 0.1%; viability at 24 h, 20 µM ([6]; 20 μM): 56.2 ± 0.03%; viability at 24 h, 30 µM ([6]; 30 μM): 55.8 ± 0.05%; viability at 24 h, 50 µM ([6]; 50 μM): 54.1 ± 0.04%; viability at 24 h, 70 µM ([6]; 70 μM): 52.7 ± 0.03%; viability at 24 h, 100 µM ([6]; 100 μM): 50.5 ± 0.02%; viability at 24 h, 150 µM ([6]; 150 μM): 50.4 ± 0.02%; viability at 24 h, 200 µM ([6]; 200 μM): 50 ± 0.04%; viability at 1 µM ([7]; Molt-4, 1 μM): 95.2 ± 0.08%; viability at 3 µM ([7]; Molt-4, 3 μM): 84.6 ± 0.04%; viability at 5 µM ([7]; Molt-4, 5 μM): 85.1 ± 0.11%; viability at 10 µM ([7]; Molt-4, 10 μM): 84.8 ± 0.03%; viability at 15 µM ([7]; Molt-4, 15 μM): 84.9 ± 0.11%; viability at 20 µM ([7]; Molt-4, 20 μM): 85.8 ± 0.03%; viability at 30 µM ([7]; Molt-4, 30 μM): 85.3 ± 0.06%; viability at 50 µM ([7]; Molt-4, 50 μM): 86.1 ± 0.11%; viability at 70 µM ([7]; Molt-4, 70 μM): 84.6 ± 0.05%; viability at 100 µM ([7]; Molt-4, 100 μM): 83.5 ± 0.12%; viability at 150 µM ([7]; Molt-4, 150 μM): 87.1 ± 0.09%; viability at 200 µM ([7]; Molt-4, 200 μM): 86.6 ± 0.08%
